# Assay results reported in patent publication US7816560B1, “Long chain n-alkyl compounds and oxa-derivatives thereof” (Thomas Jefferson University, priority 1999, dated 2010).
# Read-outs that look alike come from different tables or passages of the source.
# Assays:
# [1] = Toxicity / cell cytotoxicity in MDBK cells; assay type: cell-based; conditions: bovine
# α-glucosidase = test: Inhibition of α-glucosidase; assay type: biochemical; conditions: for Inhibitor of α glucosidase: Yes/No; for IC50: N-alkyl DNJ derivatives
# Source text: The inhibitory activity (IC50) and the cell cytotoxicity (IC50) of various compounds, as well as their effect on α-glucosidase and ceramide glucosyl transferase, are shown in Table 2.
# BVDV = BVDV plaque reduction and yield assays in MDBK cells; assay type: cell-based, bovine viral diarrhea virus; conditions: for Anti-viral effect on BVDV in MDBK cells: Yes/No
# Hepatitis B virus (HBV) = test: Secretion of enveloped HBV from Hep G2.2.15 cells, antigen capture/PCR assay; assay type: cell-based
# Source text: Pairs of wells were used for each concentration point.
# ^2IC 50: The concentration of compound that prevented the secretion of 50% of the amount of HBV detected in the medium from wells containing untreated cultures.
# HBV [2] = test: Secreted HBV DNA by Southern blot hybridization; assay type: cell-based, hepatitis B virus; conditions: HepG2.2.15 cells, seven days
# Protocol: Secreted DNA analysis: Secreted DNA analysis was performed by the method of Wei et al. (J. Virol. 70:6455-6458, 1996). […] Media containing drug was changed every two days and on the 7th day the media taken and the virus concentrated by pelleting through 20% sucrose for 16 hours (SW 41 rotor, 36,000 RPM). Virus was resuspended in 400 μL of 10 mM TRIS (pH 7.9), 10 mM EDTA (pH 8.0), and 10 mM MgCl2. Samples were split into two 200 μL aliquots and labeled as +Dnase and −Dnase. To both tubes, 15 μl of proteinase K was added to a final concentration of 750 μg/ml for one hour at 37° C. After one hour, 10 pl Dnase was added to the tube labeled +Dnase (final concentration is 50 units/ml) and incubated at 37° C. for one hour. SDS was added to a final concentration of 1% and additional proteinase K added to a final concentration of 500 μg/ml and the reaction allowed to proceed at 37° C. for 3-4 hours. DNA was than purified by phenol/chloroform extraction. DNA was separated on 1% agarose gel and probed with ^32P labeled probes as described (Mehta et al., Proc. Natl. Acad. Sci. USA 94:1822-1827, 1997).
# HepG2.2.15 cells were grown for seven days in the absence or presence of NB-DNJ (1000 μg/ml), NN-DNJ (20 μg/ml) or NN-DGJ (20 μg/ml), respectively. After seven days, virus was isolated from these cell cultures, concentrated, and purified. Secreted HBV DNA was detected by Southern blot hybridization. HBV viral DNA from untreated cells was readily detected. The secretion of HBV DNA from treated HepG2.2.15 was also detected.
# HBV [3] = test: Intracellular HBV DNA in HepG2.2.15 cells by Southern blot; assay type: cell-based, hepatitis B virus; conditions: seven days; for Effect on intracellular HBV DNA: 3TC 1 μg/ml, NB-DNJ 1000 μg/ml, NN-DNJ and NN-DGJ 2 or 20 μg/ml
# Protocol: Intracellular DNA analysis: Hep G2.2.15 cells were either left untreated or treated with the compounds listed above for seven days and the total DNA extracted as described (Mehta et al., ibid). DNA (20 μg) was digested with HindIII, resolved through a 1.2% agarose gel and transferred to nylon membranes. Membranes were then hybridized with a ^32P labeled probe containing the total HBV genome and developed as described (Lu et al., Proc. Natl. Acad. Sci. USA 94:2380-2385, 1997). The relaxed circular (rc), linear (lin), and closed circular (CCC) DNA were confirmed by enzymatic digestion.
# An infected cell contains several forms of HBV DNA which represent different stages in the HBV life cycle. For example, covalently closed circular DNA (CCC DNA) is the nuclear form of the DNA and is thought to be the viral template (Heermann & Gerlich, 1992). In contrast, the relaxed circular DNA (re DNA) and linear forms (lin) are associated with the viral particle and their presence is an indicator of encapsidation of the viral pre-genomic RNA and the subsequent reverse transcription into progeny DNA (Ganem, Curr. Top. Microbiol. Immunol. 168:61-83, 1991). […] The amount of virus associated with the cells was detected seven days later by Southern blot analysis. The locations of the HBV relaxed circular DNA (rcDNA), covalently close circular (CCC) DNA, and single stranded (SS) DNA was identified by relative mobility.
# HBV polymerase = molecular target: T1, HBV polymerase (Hepatitis B virus genotype D subtype ayw, UniProt P03156); test: Endogenous polymerase assay on purified HBV virions; assay type: biochemical
# T1 construct: HBV virions were purified from the culture medium of untreated cells by ultracentrifugation and the polymerase activity (in the presence of the indicated compounds) tested; expressed in transfected cells; host or cells: Hep G2.2.15 (HepG2 stably transfected with a dimer of the HBV genome); virions pelleted from the culture medium
# Protocol: Endogenous polymerase assay: Media containing HBV from Hep G2.2.15 cells was pelleted through 20% sucrose (SW 28 Rotor, 24,000 RPM) for 16 hours and the pellet re-suspended in 50 μl of a mixture containing 50 mM Tris (pH 7.5), 75 mM NH4Cl, 1 mM EDTA, 25 mM MgCl2, 0.1% β-mercaptoethanol, 0.5% NP-40, 0.4 mM each of dATP, dGTP, dTTP and 10 μl of P^32 labeled dCTP. […] DNA was purified by a phenol/chloroform extraction and ethanol precipitation.
# HBV DNA replication involves the conversion of a pregenomic RNA (pgRNA) into DNA by the action of the HBV polymerase. Current nucleoside analogue drugs (e.g., 3TC) for treating HBV target this reaction, preventing the formation and secretion of HBV viral DNA. Because the iminosugar N-nonyl-DGJ prevents the formation of HBV rc DNA, it was important to determine whether N-nonyl-DGJ was acting by inhibiting the elongation step of the polymerase. HBV virions from normal and drug treated Hep G2.2.15 cells were purified and the endogenous polymerase activity was measured. HBV virions were purified from the culture medium of untreated cells by ultracentrifugation and the polymerase activity (in the presence of the indicated compounds) tested by the method of Ganem et al. (1998). Briefly, partially purified viral particles were incubated overnight with the indicated concentrations of compound and 10 μCi of ^32P-dCTP. Viral DNA was purified by phenol extraction and ethanol precipitation and resolved on a 1.2% agarose gel. The gel was dried and viral DNA bands detected using a Phospholmager.
# Hep G2.2.15 cells [4] = test: MTT toxicity in Hep G2.2.15 cultures; conditions: Hep G2.2.15 cultures at conclusion of experiment (10 days)
# MDBK cells = test: Toxicity / cell cytotoxicity in MDBK cells; assay type: cell-based; conditions: for % Viability at 10 μM: N-alkyl DNJ at 10 μM; for % Viability at 100 μM: N-alkyl DNJ at 100 μM
# [5] = molecular target: T2, ceramide glucosyl transferase (CerGlcT) (Homo sapiens, UniProt Q16739); test: Inhibition of ceramide glucosyl transferase / glycolipid synthesis; assay type: biochemical; conditions: for IC50: N-alkyl DNJ derivatives; for Inhibitor of glycolipid synthesis: Yes/No
# T2 sequence (Q16739 1-394): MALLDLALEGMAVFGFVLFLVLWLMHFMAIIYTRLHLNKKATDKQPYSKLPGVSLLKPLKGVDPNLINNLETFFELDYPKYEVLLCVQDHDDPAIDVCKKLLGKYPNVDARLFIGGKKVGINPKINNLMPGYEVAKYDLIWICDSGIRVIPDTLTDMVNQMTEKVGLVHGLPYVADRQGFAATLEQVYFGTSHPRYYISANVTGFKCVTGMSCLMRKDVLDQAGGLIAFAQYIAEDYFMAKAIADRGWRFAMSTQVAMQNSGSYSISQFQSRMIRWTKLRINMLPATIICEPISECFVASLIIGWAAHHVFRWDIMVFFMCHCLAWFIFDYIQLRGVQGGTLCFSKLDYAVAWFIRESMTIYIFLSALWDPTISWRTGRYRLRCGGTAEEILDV
# Hep G2.2.15 cells [6] = tested on: Hep G2.2.15 cells
# [7] = Bovine viral diarrhea virus isolates and strains, MDBK, read-out: Anti-viral effect on BVDV in MDBK cells IC50
# [8] = Hepatitis B virus, HepG2.2.15, 216 h, Hep G2.2.15 cells, nine days of incubation, read-out: IC 50, secretion of HBV
# [9] = MDBK cells, read-out: Anti-viral effect on BVDV in MDBK cells IC50
# T1 sequence (P03156 whole entry): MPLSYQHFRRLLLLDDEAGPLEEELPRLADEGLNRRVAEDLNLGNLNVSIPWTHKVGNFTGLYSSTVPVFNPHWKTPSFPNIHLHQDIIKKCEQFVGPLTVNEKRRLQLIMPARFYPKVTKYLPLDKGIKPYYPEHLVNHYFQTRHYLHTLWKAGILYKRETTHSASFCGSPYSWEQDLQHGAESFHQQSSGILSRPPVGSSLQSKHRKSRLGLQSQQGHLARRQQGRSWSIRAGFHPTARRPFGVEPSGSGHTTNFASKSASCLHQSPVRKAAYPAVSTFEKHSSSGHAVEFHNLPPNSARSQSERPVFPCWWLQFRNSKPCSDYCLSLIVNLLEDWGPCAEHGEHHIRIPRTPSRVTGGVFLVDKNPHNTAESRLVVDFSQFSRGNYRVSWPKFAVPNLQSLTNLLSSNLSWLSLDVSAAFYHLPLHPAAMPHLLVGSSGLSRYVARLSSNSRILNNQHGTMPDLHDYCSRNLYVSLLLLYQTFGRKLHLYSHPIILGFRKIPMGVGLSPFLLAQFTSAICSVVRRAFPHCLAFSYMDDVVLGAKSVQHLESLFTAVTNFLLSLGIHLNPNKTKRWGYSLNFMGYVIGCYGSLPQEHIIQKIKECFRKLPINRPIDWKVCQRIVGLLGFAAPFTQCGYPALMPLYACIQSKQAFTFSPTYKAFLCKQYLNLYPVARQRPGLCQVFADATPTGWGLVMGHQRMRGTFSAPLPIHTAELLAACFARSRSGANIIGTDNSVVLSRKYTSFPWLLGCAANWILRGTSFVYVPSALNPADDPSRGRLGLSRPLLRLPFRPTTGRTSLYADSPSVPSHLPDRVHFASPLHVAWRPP
structure (smiles),measurement,setting,value
"CCCCCCCCCN1C[C@H](O)[C@@H](O)[C@@H](O)[C@H]1CO [N-nonyl DGJ, N-nonyl-1,5-dideoxy-1,5-imino-D-galactitol]",CC50,[1],250 µM
same,Inhibitor of α glucosidase,α-glucosidase,No
same,IC50,BVDV; [7],5 µM
same,Anti-viral effect on BVDV in MDBK cells,BVDV,Yes
same,Reduction of enveloped HBV in the culture medium,"Hepatitis B virus (HBV); Hep G2.2.15 cells, compared with untreated controls, nine days",at least as effective as NN-DNJ in reducing the HBV secretion
same,IC50,Hepatitis B virus (HBV); [8],1.5 to 5 µM
same,IC50,"Hepatitis B virus (HBV); Hepatitis B virus, HepG2.2.15, read-out: IC50, HBV secretion",~0.5 µM
same,Decrease of secreted virus DNA,HBV [2]; 20 μg/ml,about 14 fold
same,Reduction of intracellular HBV DNA,HBV [3]; 2 or 20 μg/ml,greater than 25 fold
same,Effect on intracellular HBV DNA,HBV [3],almost complete disappearance of intracellular HBV DNA
same,Effect on HBV polymerase activity,HBV polymerase; 69 μM,no effect on polymerase activity
same,TOX 50 (MTT activity reduced to 50%),Hep G2.2.15 cells [4],>200 µM
CCCCCCCCCCCCN1C[C@H](O)[C@@H](O)[C@H](O)[C@H]1CO [C12],% Viability at 10 μM,MDBK cells,86%
same,% Viability at 100 μM,MDBK cells,1%
same,IC50,[5],5.2 µM
CCCCCCCCN1C[C@H](O)[C@@H](O)[C@H](O)[C@H]1CO [C8],% Viability at 10 μM,MDBK cells,70%
same,% Viability at 100 μM,MDBK cells,71%
same,IC50,[5],16.8 µM
"CCCCN1C[C@H](O)[C@@H](O)[C@H](O)[C@H]1CO [N-butyl DNJ, N-butyl deoxynojiricmycin, reference compound]",CC50,MDBK cells,> 10000 µM
same,% Viability at 10 μM,MDBK cells,74%
same,% Viability at 100 μM,MDBK cells,77%
same,IC50,α-glucosidase,0.57 µM
same,Inhibitor of α glucosidase,α-glucosidase,Yes
same,IC50,BVDV; [9],60 to 120 µM
same,Anti-viral effect on BVDV in MDBK cells,BVDV,Yes
same,Decrease of secreted virus DNA,HBV [2]; 1000 μg/ml,about 3 fold
same,Effect on intracellular HBV DNA,HBV [3],dramatic increase in the replicative forms of HBV DNA
same,Effect on HBV polymerase activity,HBV polymerase; 4.52 mM,no effect on polymerase activity
"Nc1ccn([C@@H]2CS[C@H](CO)O2)c(=O)n1 [3TC, reference compound]",IC50,Hepatitis B virus (HBV); [8],5 µM
"CCOCCCCCCN1C[C@H](O)[C@@H](O)[C@@H](O)[C@H]1C [N-7-oxa-nonyl MeDGJ, N-(7-oxa-nonyl)-1,5,6-trideoxy-1,5-imino-D-galactitol]",CC50,[1],2100 µM
same,Inhibitor of α glucosidase,α-glucosidase,No
same,Inhibitor of glycolipid synthesis,[5],No
same,Selectivity index (CC50/IC50),BVDV; BVDV in MDBK cells,1400
same,IC50,BVDV; [7],1.5 µM
same,Anti-viral effect on BVDV in MDBK cells,BVDV,Yes
"CCCCCCCCCN1C[C@H](O)[C@@H](O)[C@@H](O)[C@H]1C [N-nonyl MeDGJ, N-nonyl-1,5,6-trideoxy-1,5-imino-D-galactitol]",Inhibitor of α glucosidase,α-glucosidase,No
same,Inhibitor of glycolipid synthesis,[5],No
same,IC50,"BVDV; Bovine viral diarrhea virus isolates and strains, MDBK, read-out: IC50, BVDV plaques",< 2.5 µM
same,IC50,BVDV; [7],2 to 3 µM
same,Anti-viral effect on BVDV in MDBK cells,BVDV,Yes
same,melting point,,49 to 51 °C
"OC[C@H]1NC[C@H](O)[C@@H](O)[C@@H]1O [DNJ, deoxynorjirimycin, reference compound]",Inhibitor of α glucosidase,α-glucosidase,Yes
same,IC50,BVDV; [9],20 µM
same,Anti-viral effect on BVDV in MDBK cells,BVDV,Yes
"CCCCN1C[C@H](O)[C@@H](O)[C@@H](O)[C@H]1CO [N-butyl DGJ, reference compound]",Inhibitor of α glucosidase,α-glucosidase,No
same,Anti-viral effect on BVDV in MDBK cells,BVDV,No
"CCCCCCCCCN1C[C@H](O)[C@@H](O)[C@H](O)[C@H]1CO [N-nonyl DNJ, N-nonyl-deoxynojirimycin]",CC50,MDBK cells,250 µM
same,% Viability at 10 μM,MDBK cells,56%
same,% Viability at 100 μM,MDBK cells,41%
same,Inhibitor of α glucosidase,α-glucosidase,Yes
same,IC50,BVDV; [9],2 to 3 µM
same,Anti-viral effect on BVDV in MDBK cells,BVDV,Yes
same,IC50,"Hepatitis B virus (HBV); Hep G2.2.15 cells, antigen capture method, read-out: IC50, HBV secretion",~1 µM
same,IC50,"Hepatitis B virus (HBV); Hep G2.2.15 cells, nine days of incubation, read-out: IC 50, secretion of HBV",0.4 to 4 µM
same,Decrease of secreted virus DNA,HBV [2]; 20 μg/ml,~1.5 fold
same,Effect on intracellular HBV DNA,HBV [3],did not cause a large increase in intracellular HBV DNA but rather a reduction
same,Effect on HBV polymerase activity,HBV polymerase; 69 μM,no effect on polymerase activity
same,TOX 50 (MTT activity reduced to 50%),Hep G2.2.15 cells [6],>100 µM
CCCCCCN1C[C@H](O)[C@@H](O)[C@H](O)[C@H]1CO [C6],% Viability at 10 μM,MDBK cells,73%
same,% Viability at 100 μM,MDBK cells,71%
same,IC50,[5],23.8 µM
CCCCCCCCCCN1C[C@H](O)[C@@H](O)[C@H](O)[C@H]1CO [C10],% Viability at 10 μM,MDBK cells,73%
same,% Viability at 100 μM,MDBK cells,43%
same,IC50,α-glucosidase,0.48 µM
same,IC50,[5],3.1 µM
